“And” between values parts separate entries of the source, which are not always exact repeats. Identical values can stand only once. Like-named read-outs stand apart in the source and are kept apart here.
Legend:
[1] = tested on: Ras; assay: GTPase and effector interaction assay (Raf1-RBD beads), HeLa cell lysates; conditions: HeLa cells, 10 μM, 2 h, EGF 10 ng/mL 2 min
Experimental: GST effector chimeras consisting of the minimal GTPase binding domain were p21-activated kinase p21 binding domain (PAK-PBD) for Cdc42, Raf1 Ras-binding domain (Raf1-RBD) for Ras, and Rab-interacting lysosomal protein (RILP) for Rab7 binding measurements.
Superdex peptide beads (13 μm, from GE Healthcare) derivatized with GSH were coated with effector proteins to saturation. […] The effector-coated glutathione beads (20,000 beads/assay) were incubated with 200 μL cell lysate from a single treated well for 1 h at 4°C. […] The bead associated fluorescence representing bound GTPase was quantified on an Accuri C6 flow cytometer.

[2] = biological target: Cdc42 Q61L (Homo sapiens, UniProt P60953, Q61L); assay: Multiplex bead-based flow cytometry dose-response of fluorescent guanine nucleotide binding; conditions: EC50 Cdc42 Q61L
Experimental: (§3) Briefly, individual GST-GTPases were separately attached to glutathione microsphere beads that were labeled with varying intensity of red fluorescent dye, and subsequently combined. The buffer contains 30 mM HEPES (pH 7.2), 150 mM KCl, 20 mM NaCl, 0.1% BSA, 1 mM DTT, 1 mM EDTA and 0.1% NP-40. […] To study whether the compounds are slow binders, BODIPY^- FL GTP was added either immediately or 2 h after compound addition. […] The curves were fitted to the sigmoidal dose-response equation using GraphPad Prism. Percent response was calculated as the ratio of (sample MCF–negative control MCF) / (positive control MCF–negative control MCF).

[3] = biological target: Rac1 (Homo sapiens, UniProt P63000); assay: as above
Experimental: (§4) Briefly, individual GST-GTPases were separately attached to glutathione microsphere beads that were labeled with varying intensity of red fluorescent dye, and subsequently combined. The buffer contains 30 mM HEPES (pH 7.2), 150 mM KCl, 20 mM NaCl, 0.1% BSA, 1 mM DTT, 1 mM EDTA and 0.1% NP-40. For Rho A and Rac1, 1 mM EDTA was replaced with 1 mM MgCl2 to stabilize the protein. […] To study whether the compounds are slow binders, BODIPY^- FL GTP was added either immediately or 2 h after compound addition. […] The curves were fitted to the sigmoidal dose-response equation using GraphPad Prism. Percent response was calculated as the ratio of (sample MCF–negative control MCF) / (positive control MCF–negative control MCF).

[4] = Stability in PBS; assay type: physicochemical; conditions: 23 °C, after 48 hours
Experimental: (§1) page 7: conclusion, the available data support the idea that compound CID1067700 has non-classical competitive character. […] Solubility was measured in phosphate buffered saline (PBS) at room temperature (23 °C). PBS by definition is 137 mM NaCl, 2.7 mM KCl, 10 mM sodium phosphate dibasic, 2 mM potassium phosphate [monobasic and a pH of 7.4. Detection was based on UV absorbance. […] Solubility was also assessed in the each of the four media used in the individual assays. […] Table 1S. […] Stability, depicted as closed circles in the graph, was assessed at room temperature (23 °C) in PBS (no antioxidants or other protectants and DMSO concentration below 0.1%). Stability data is depicted in Fig. S8 showing the loss of compound with time over a 48 h period with a minimum of 6 time points and providing the percent remaining compound at end of the 48 h period. Under these conditions, 77% of 1 remains after 48 hours. The degradation has not been further characterized.

[5] = tested on: GTPases (H-Ras, H-Ras G12V, Cdc42, Cdc42 Q61L, Rac1, Rac1 Q61L, RhoA, Rab7); assay: Multiplex dose-response assay, statements across the GTPase panel
Experimental: as §4

[6] = tested on: phospho-Erk 1/2 in H358 cells; assay: Western blotting of Erk1/2 phosphorylation downstream of Ras signaling; assay type: cell-based; conditions: 10 μM, 1 h; complete medium or FBS stimulated after starvation
Experimental: H358 lung cancer cells were seeded at 10^6 cells/well in 6–well plates. […] Then cells were stimulated with 10% FBS for 5 min and lysed in 150 μl RIPA buffer. Cell lysates were processed for SDS-PAGE, transferred to PVDF membranes and probed with a monoclonal antibody directed against phospho-Erk 1/2 (from Cell Signaling) and a monoclonal antibody directed against Erk 1/2 (from Cell Signaling) followed by an HRP labeled ECL anti-mouse IgG (from GE Healthcare).

[7] = tested on: integrin VLA-4 on U937 FPRΔST cells; assay: Integrin activation assay (LDV-FITC binding); assay type: cell-based; conditions: LDV-FITC 4 nM, fMLFF 100 nM
Experimental: The procedure followed the protocols described previously. U937 FPRΔST cells (0.4~0.8 x 10^6 cells/mL) were continuously stirred with a magnetic stir bar at 500 rpm in a test tube. The fluorescence was recorded on a FACScan flow cytometer. The baseline fluorescence of the cells was established for 30 s. Then LDV-FITC at 4 nM was added. After the fluorescence stabilized at ~120 s, the chemotactic ligand fMLFF at 100 nM was added for stimulation. […] All the concentrations given were the final concentrations. The percent inhibition was calculated according to Equation 1 (Supporting Information).

[8] = biological target: Cdc42 (Homo sapiens, UniProt P60953); assay: Multiplex bead-based flow cytometry dose-response of fluorescent guanine nucleotide binding
Experimental: as §3

[9] = tested on: H358 cells; assay: CellTiter-Glo viability assay; assay type: cell-based; conditions: 48 h, compared with U937 FPRΔST control cells
Experimental: (§2) Cells were plated in a 96-well plate at 2000 cells per well and allowed to incubate overnight. Compound 1 or the same volume of DMSO was added on the second day. Viability was examined after 48 h. Data were collected from at least triplicate samples. Results were reported as viability treated/viability untreated (DMSO control). To evaluate apoptosis, the PE Annexin V Apoptosis Kit I was used. In 6-well plates, H358 cells were seeded at 50% confluence, while U937 FPRΔST cells were at 0.02 x 10^6 /mL. After overnight incubation, the cells were treated with compound 1 or DMSO. At 24 h or 48 h, cells were washed with PBS, and resuspended in 100 uL annexin-V binding buffer. After staining with annexin-V-FITC and 7-AAD, cells were analyzed on an Accuri C6 flow cytometer. At least 7,000 cells were measured per individual sample. The annexin^+AAD^- cells are defined as cells undergoing apoptosis. Data were collected from duplicate samples and the experiments were repeated. Results are given as the ratios of the apoptotic populations between the compound-treated and the DMSO-treated cells.

[10] = biological target: H-Ras G12V (Homo sapiens, UniProt P01112, G12V); assay: Multiplex bead-based flow cytometry dose-response of fluorescent guanine nucleotide binding; conditions: EC50 H-Ras G12V
Experimental: as §3

[11] = tested on: H358 cells; assay: PE Annexin V apoptosis assay; assay type: cell-based; conditions: 24 h or 48 h
Experimental: as §2

[12] = tested on: U937 FPRΔST cells; assay: PE Annexin V apoptosis assay; assay type: cell-based; conditions: 24 h or 48 h
Experimental: as §2

[13] = biological target: Rac1 Q61L (Homo sapiens, UniProt P63000, Q61L); assay: Multiplex bead-based flow cytometry dose-response of fluorescent guanine nucleotide binding; conditions: EC50 Rac1 Q61L
[14] = Solubility in PBS and assay media; assay type: physicochemical
Experimental: as §1

[15] = BODIPY-FL GTP binding, 2 h at 4°C
[16] = concentration dependence on BODIPY-FL GDP

Cdc42, sequence (P60953 whole entry): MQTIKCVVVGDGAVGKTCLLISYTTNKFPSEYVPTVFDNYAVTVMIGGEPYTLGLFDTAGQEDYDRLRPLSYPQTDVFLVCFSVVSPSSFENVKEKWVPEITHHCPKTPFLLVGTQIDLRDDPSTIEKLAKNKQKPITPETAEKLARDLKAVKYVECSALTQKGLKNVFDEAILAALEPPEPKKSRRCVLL
Cdc42 Q61L, sequence (P60953 whole entry Q61L): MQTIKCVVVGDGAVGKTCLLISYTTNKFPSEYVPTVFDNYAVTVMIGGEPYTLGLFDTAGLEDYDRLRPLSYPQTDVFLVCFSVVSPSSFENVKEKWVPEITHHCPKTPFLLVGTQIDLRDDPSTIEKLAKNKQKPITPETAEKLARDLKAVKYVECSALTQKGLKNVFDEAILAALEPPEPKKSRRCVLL
H-Ras G12V, sequence (P01112 whole entry G12V): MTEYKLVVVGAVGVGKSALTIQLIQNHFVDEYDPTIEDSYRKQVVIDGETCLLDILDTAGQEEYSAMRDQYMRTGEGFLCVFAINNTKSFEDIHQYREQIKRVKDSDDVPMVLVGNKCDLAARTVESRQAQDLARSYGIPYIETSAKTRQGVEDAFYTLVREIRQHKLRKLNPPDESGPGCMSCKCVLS

SMILES: CC1(C)Cc2c(sc(NC(=S)NC(=O)c3ccccc3)c2C(=O)O)CO1 [Compound 1]
- level of active Ras after EGF stimulation [1]: dramatically blunted
- EC50 [2, 15]: 47 ± 38 nM
- EC50 [2, 16]: 350 nM
- EC50 ([3]; EC50 Rac1, BODIPY-FL GTP binding, 2 h at 4°C, 1 mM MgCl2): 62 ± 49 nM
- EC50 ([3]; EC50 Rac1, concentration dependence on BODIPY-FL GDP): 99 nM
- compound remaining [4]: 77%
- inhibitory activity on BODIPY-FL GTP binding across all GTPases tested (in words) ([5]; SAR versus compound 1): inhibited BODIPY^- FL GTP binding to all the GTPases tested in a dose-dependent manner
- slow binding behaviour ([5]; two-hour incubation or no incubation before BODIPY-FL GTP): not a slow binder
- phosphorylation level of Erk 1/2 [6]: decreased
- integrin VLA-4 activation (LDV-FITC binding after fMLFF) [7]: caused diminished binding
- EC50 ([8]; EC50 Cdc42, BODIPY-FL GTP binding, 2 h at 4°C): 1090 ± 1620 nM
- EC50 ([8]; EC50 Cdc42, concentration dependence on BODIPY-FL GDP): 420 nM
- EC50 ([8]; EC50 Cdc42_1, with 2 h incubation before BODIPY-FL GTP, Cdc42 purified in house): 2060 ± 38 nM
- EC50 ([8]; EC50 Cdc42_1, without incubation before BODIPY-FL GTP, Cdc42 purified in house): 2230 ± 1470 nM
- EC50 ([8]; EC50 Cdc42_2, with 2 h incubation before BODIPY-FL GTP, Cdc42 from Cytoskeleton): 3710 ± 39 nM
- EC50 ([8]; EC50 Cdc42_2, without incubation before BODIPY-FL GTP, Cdc42 from Cytoskeleton): 4460 ± 2630 nM
- viability [9]: decreased the viability of H358 cells more than the U937 FPRΔST cells
- EC50 [10, 15]: 52 ± 44 nM
- EC50 [10, 16]: 260 nM
- apoptosis [11]: time-dependent apoptosis increase
- apoptosis increase [12]: absent
- EC50 [13, 15]: 75 ± 59 nM
- EC50 [13, 16]: 120 nM
- solubility ([14]; Dose Response-buffer (HEPES buffer), 23 °C, aqueous with cosolvent or surfactant or cyclodextrin, 30mM HEPES, pH 7.5, 100mM KCl, 20mM NaCl, 0.01% (v/v) NP-40, read-out: Solubility, Dose Response-buffer): > 68.1 µg/mL and > 174 µM
- solubility ([14]; EGFR degradation assay medium, DMEM/F-12, read-out: Solubility, EGFR degradation assay medium): > 116 µg/mL and > 297 µM
- solubility ([14]; LDV-FITC assay buffer, RPMI 1640 + 10% HI-FBS, read-out: Solubility, LDV-FITC assay buffer): > 116 µg/mL and > 297 µM
- solubility ([14]; phosphate buffered saline (PBS), PBS pH 7.4, 23 °C, read-out: PBS solubility): > 116 µg/mL and > 297 µM

— PMC4527730, “A Pan-GTPase Inhibitor as a Molecular Probe” (PLoS ONE, 2015)
